Measured values from PubChem BioAssay (NCI).
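Values below derive from 48-hour exposures of cells grown in 96-well plates, with endpoints linearly interpolated between the two concentrations bracketing the appropriate inhibition level. The concentration for full growth arrest is given as TGI.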

Assays:
Experiment in all cases: NCI anticancer screen, dose series, 48 h
[1] = tested on: 786-0 renal
[2] = tested on: A498 renal
[3] = tested on: A549 NSCLC
[4] = tested on: ACHN renal
[5] = tested on: BT-549 breast
[6] = tested on: CAKI-1 renal
[7] = tested on: COLO 205 colon
[8] = tested on: DU-145 prostate
[9] = tested on: EKVX NSCLC
[10] = tested on: HCC-2998 colon
[11] = tested on: HCT-116 colon
[12] = tested on: HCT-15 colon
[13] = tested on: HOP-92 NSCLC
[14] = tested on: HT29 colon
[15] = tested on: IGROV1 ovarian
[16] = tested on: K-562 leukemia
[17] = tested on: KM12 colon
[18] = tested on: M14 melanoma
[19] = tested on: MALME-3M melanoma
[20] = tested on: MCF7 breast
[21] = tested on: MDA-MB-231 breast
[22] = tested on: MDA-MB-435
[23] = tested on: MDA-N
[24] = tested on: MOLT-4 leukemia
[25] = tested on: NCI-H226 lung
[26] = tested on: NCI-H23 lung
[27] = tested on: NCI-H460 lung
[28] = tested on: NCI-H522 lung
[29] = tested on: NCI/ADR-RES ovarian
[30] = tested on: OVCAR-4 ovarian
[31] = tested on: OVCAR-5 ovarian
[32] = tested on: PC-3 prostate
[33] = tested on: RPMI-8226 leukemia
[34] = tested on: RXF 393 renal
[35] = tested on: SF-268 CNS
[36] = tested on: SK-MEL-2 melanoma
[37] = tested on: SK-MEL-28 melanoma
[38] = tested on: SK-MEL-5 melanoma
[39] = tested on: SN12C renal
[40] = tested on: SNB-19 CNS
[41] = tested on: SW-620 colon
[42] = tested on: TK-10 renal
[43] = tested on: U251 CNS
[44] = tested on: UACC-257 melanoma
[45] = tested on: UACC-62 melanoma
[46] = tested on: UO-31 renal
[47] = tested on: CCRF-CEM leukemia
[48] = tested on: HL-60(TB) leukemia
[49] = tested on: HOP-62 NSCLC
[50] = tested on: LOX IMVI melanoma
[51] = tested on: OVCAR-3 ovarian
[52] = tested on: OVCAR-8 ovarian
[53] = tested on: SF-295 CNS
[54] = tested on: SF-539 CNS
[55] = tested on: SK-OV-3 ovarian
[56] = tested on: SNB-75 CNS
[57] = tested on: T-47D breast
[58] = tested on: HS 578T breast
[59] = tested on: SR leukemia

Nn1c(CCCCCCCCc2nnc(COc3ccc(Cl)cc3Cl)n2N)nnc1COc1ccc(Cl)cc1Cl
TGI [1]: > 100 µM | TGI [2]: > 100 µM | TGI [3]: > 100 µM | TGI [4]: > 100 µM | TGI [5]: > 100 µM | TGI [6]: > 100 µM | TGI [7]: 70 µM | TGI [8]: > 100 µM | TGI [9]: > 100 µM | TGI [10]: > 100 µM | TGI [11]: 86.8 µM | TGI [12]: > 100 µM | TGI [13]: > 100 µM | TGI [14]: > 100 µM | TGI [15]: 66 µM | TGI [16]: > 100 µM | TGI [17]: > 100 µM | TGI [18]: > 100 µM | TGI [19]: > 100 µM | TGI [20]: > 100 µM | TGI [21]: > 100 µM | TGI [22]: > 100 µM | TGI [23]: > 100 µM | TGI [24]: > 100 µM | TGI [25]: > 100 µM | TGI [26]: > 100 µM | TGI [27]: > 100 µM | TGI [28]: 59.7 µM | TGI [29]: > 100 µM | TGI [30]: > 100 µM | TGI [31]: > 100 µM | TGI [32]: > 100 µM | TGI [33]: > 100 µM | TGI [34]: > 100 µM | TGI [35]: > 100 µM | TGI [36]: > 100 µM | TGI [37]: > 100 µM | TGI [38]: > 100 µM | TGI [39]: > 100 µM | TGI [40]: > 100 µM | TGI [41]: > 100 µM | TGI [42]: > 100 µM | TGI [43]: > 100 µM | TGI [44]: > 100 µM | TGI [45]: > 100 µM | TGI [46]: > 100 µM

NC1CC(=O)c2cscc21 (configuration not stated)
TGI [1]: 28.4 µM | TGI [3]: 41.7 µM | TGI [5]: > 100 µM | TGI [6]: 29.3 µM | TGI [47]: 38.2 µM | TGI [7]: 52 µM | TGI [8]: > 100 µM | TGI [9]: > 100 µM | TGI [11]: > 100 µM | TGI [12]: 88.5 µM | TGI [48]: 33.3 µM | TGI [49]: > 100 µM | TGI [13]: 49.6 µM | TGI [14]: > 100 µM | TGI [15]: > 100 µM | TGI [16]: > 100 µM | TGI [17]: 43.1 µM | TGI [50]: > 100 µM | TGI [18]: > 100 µM | TGI [21]: > 100 µM | TGI [22]: 64.2 µM | TGI [23]: > 100 µM | TGI [24]: > 100 µM | TGI [26]: > 100 µM | TGI [27]: > 100 µM | TGI [29]: > 100 µM | TGI [51]: 34.8 µM | TGI [30]: > 100 µM | TGI [31]: > 100 µM | TGI [52]: > 100 µM | TGI [32]: > 100 µM | TGI [33]: > 100 µM | TGI [34]: > 100 µM | TGI [53]: > 100 µM | TGI [54]: > 100 µM | TGI [36]: > 100 µM | TGI [37]: > 100 µM | TGI [38]: > 100 µM | TGI [55]: > 100 µM | TGI [39]: > 100 µM | TGI [40]: > 100 µM | TGI [56]: > 100 µM | TGI [41]: 37.4 µM | TGI [57]: 40.3 µM | TGI [42]: 33.6 µM | TGI [43]: > 100 µM | TGI [44]: > 100 µM | TGI [46]: 22.1 µM

COc1cc2c(cc1OC)[C@@H]1[C@H](C#N)C(=O)C(C)(C)N1CC2
TGI [1]: > 100 µM | TGI [2]: > 100 µM | TGI [3]: > 100 µM | TGI [4]: > 100 µM | TGI [5]: > 100 µM | TGI [6]: > 100 µM | TGI [47]: > 100 µM | TGI [7]: > 100 µM | TGI [8]: > 100 µM | TGI [9]: > 100 µM | TGI [10]: > 100 µM | TGI [11]: > 100 µM | TGI [12]: > 100 µM | TGI [48]: > 100 µM | TGI [13]: > 100 µM | TGI [58]: > 100 µM | TGI [14]: > 100 µM | TGI [15]: > 100 µM | TGI [16]: > 100 µM | TGI [17]: > 100 µM | TGI [50]: > 100 µM | TGI [18]: > 100 µM | TGI [19]: > 100 µM | TGI [20]: > 100 µM | TGI [21]: > 100 µM | TGI [22]: > 100 µM | TGI [23]: > 100 µM | TGI [24]: > 100 µM | TGI [25]: > 100 µM | TGI [26]: > 100 µM | TGI [27]: > 100 µM | TGI [28]: > 100 µM | TGI [29]: > 100 µM | TGI [51]: > 100 µM | TGI [30]: > 100 µM | TGI [31]: > 100 µM | TGI [52]: > 100 µM | TGI [32]: > 100 µM | TGI [33]: > 100 µM | TGI [53]: > 100 µM | TGI [37]: > 100 µM | TGI [38]: > 100 µM | TGI [55]: > 100 µM | TGI [39]: > 100 µM | TGI [40]: > 100 µM | TGI [59]: > 100 µM | TGI [41]: > 100 µM | TGI [42]: > 100 µM | TGI [43]: > 100 µM | TGI [44]: > 100 µM | TGI [45]: > 100 µM | TGI [46]: > 100 µM

CC1=CC(=O)[C@@H](O)[C@]2(C)[C@H]3[C@@]4(O)OC[C@]35[C@H]([C@@H](C)[C@H]4O)[C@@H](OC(=O)C(C)(C)CO)C(=O)O[C@@H]5C[C@@H]12
TGI [1]: 4.83 µM | TGI [2]: 5.39 µM | TGI [3]: 41.5 µM | TGI [4]: 1.33 µM | TGI [5]: 0.423 µM | TGI [6]: 9.88 µM | TGI [7]: 7 µM | TGI [9]: 15.1 µM | TGI [10]: 1 µM | TGI [11]: 2.11 µM | TGI [12]: 3.1 µM | TGI [48]: > 100 µM | TGI [49]: 1.63 µM | TGI [58]: 0.897 µM | TGI [14]: 10.4 µM | TGI [16]: > 100 µM | TGI [17]: 0.787 µM | TGI [50]: 0.0741 µM | TGI [18]: 0.446 µM | TGI [20]: > 100 µM | TGI [22]: 1.65 µM | TGI [23]: 0.825 µM | TGI [25]: 0.553 µM | TGI [26]: 0.0869 µM | TGI [27]: 0.547 µM | TGI [28]: 0.417 µM | TGI [29]: 51.3 µM | TGI [51]: 1.92 µM | TGI [30]: 1.9 µM | TGI [31]: 23.3 µM | TGI [52]: 2.52 µM | TGI [32]: 4.84 µM | TGI [33]: 0.0968 µM | TGI [34]: 2.23 µM | TGI [35]: 0.236 µM | TGI [53]: 1.71 µM | TGI [54]: < 0.0261 µM | TGI [36]: 0.559 µM | TGI [37]: > 100 µM | TGI [38]: 0.187 µM | TGI [55]: > 81.4 µM | TGI [39]: 4.5 µM | TGI [40]: 0.626 µM | TGI [56]: 2.11 µM | TGI [41]: > 27.6 µM | TGI [45]: 0.86 µM | TGI [46]: 2.44 µM

COc1ccc(/C=c2/sc3n(c2=O)C(c2ccccc2)C2(O)CCCCC2N=3)cc1 (configuration not stated)
TGI [1]: > 12.5 µM | TGI [3]: > 12.5 µM | TGI [4]: > 12.5 µM | TGI [5]: > 12.5 µM | TGI [6]: > 12.5 µM | TGI [47]: > 12.5 µM | TGI [10]: > 12.5 µM | TGI [11]: > 12.5 µM | TGI [48]: > 12.5 µM | TGI [49]: > 12.5 µM | TGI [14]: > 12.5 µM | TGI [15]: > 12.5 µM | TGI [16]: > 12.5 µM | TGI [50]: > 12.5 µM | TGI [18]: > 12.5 µM | TGI [19]: > 12.5 µM | TGI [20]: > 12.5 µM | TGI [22]: > 12.5 µM | TGI [23]: > 12.5 µM | TGI [24]: > 12.5 µM | TGI [25]: > 12.5 µM | TGI [26]: > 12.5 µM | TGI [27]: > 12.5 µM | TGI [28]: > 12.5 µM | TGI [51]: > 12.5 µM | TGI [30]: > 12.5 µM | TGI [31]: > 12.5 µM | TGI [52]: > 12.5 µM | TGI [32]: > 12.5 µM | TGI [33]: > 12.5 µM | TGI [35]: > 12.5 µM | TGI [36]: > 12.5 µM | TGI [37]: > 12.5 µM | TGI [38]: > 12.5 µM | TGI [40]: > 12.5 µM | TGI [56]: > 12.5 µM | TGI [59]: > 12.5 µM | TGI [41]: > 12.5 µM | TGI [57]: > 12.5 µM | TGI [42]: > 12.5 µM | TGI [43]: > 12.5 µM | TGI [44]: > 12.5 µM | TGI [45]: > 12.5 µM | TGI [46]: > 12.5 µM
